Results reported in patent US20260262647A1, “Synergistic Compositions Containing Guanidine” (Thor GmbH, priority 2023, published 2026).

Tested on: Pseudomonas spec. DSM 115322
Assay: Minimum inhibitory concentrations and synergy index in Müller-Hinton broth
Format: cell-based
Procedure: Test organisms used were Gram-negative bacterial species from the group of pseudomonads, Pseudomonas putida DSM 115323 and Pseudomonas spec. DSM 115322. For this purpose, mixtures with different concentrations of the respective active substances were prepared and tested for their effect on the pseudomonads. The test was run in Müller-Hinton broth MHB with a cell density of 10^6 microbes per ml. When organic acids are used as a combination partner with the guanidine, MHB was adjusted to pH 5.5.
The incubation was run in microplates at 30° C. for 48 hours. After 48 hours, the batches were evaluated for turbidity resulting from growth, and optical density was additionally determined photometrically. In this way, the minimum inhibitory concentrations (MICs) of the two actives were determined individually and in combination.
The calculation was done according to the standard method of F. C. Kull et al., Applied Microbiology, vol. 9 (1961), p. 538.
This involves calculating the synergy index (SI) by the following formula:
[formula] • Qa=concentration of component A in the A+B mixture • QA=concentration of component A as the sole biocide • Qb=concentration of component B in the A+B mixture • QB=concentration of component B as the sole biocide
If the synergy index is greater than 1, this means that there is antagonism. If the synergy index assumes the value 1, this means that the effect of the two biocides/compounds is additive. If the synergy index assumes a value of less than 1, this means that there is synergism between the two biocides/compounds.

In the case of `OCc1ccccc1` [benzyl alcohol], the “QB: Concentration of benzyl alcohol as the sole agent that shows an endpoint” value (benzyl alcohol alone, 48 hours at 30° C.) is reported as 2000 ppm and the “Synergy index Qa/QA + Qb/QB” value (guanidine and benzyl alcohol) is reported as 1.00.
In the case of `O=[N+]([O-])C(Br)(CO)CO` [bronopol], the “QB: Concentration of bronopol as the sole agent that shows an endpoint” value (bronopol alone, 48 hours at 30° C.) is reported as 25 ppm and the “Synergy index Qa/QA + Qb/QB” value (guanidine and bronopol) is reported as 1.00.
For `O=C(O)CC(O)(CC(=O)O)C(=O)O` [citric acid], the “QB: Concentration of citric acid as the sole agent that shows an endpoint” value (citric acid (added as trisodium citrate) alone, MHB adjusted to pH 5.5, 48 hours at 30° C.) was 51293 ppm.
With `CCCCCC(O)CO` (centres unmarked) [heptane-1,2-diol] the “Synergy index Qa/QA + Qb/QB” value (guanidine and heptane-1,2-diol) was 1.00 and the “QB: Concentration of heptane-1,2-diol as the sole agent that shows an endpoint” value (heptane-1,2-diol alone, 48 hours at 30° C.) was 3750 ppm.
With `CCCCC(O)CO` (centres unmarked) [hexane-1,2-diol] the “Synergy index Qa/QA + Qb/QB” value (guanidine and hexane-1,2-diol) was 1.00 and the “QB: Concentration of hexane-1,2-diol as the sole agent that shows an endpoint” value (hexane-1,2-diol alone, 48 hours at 30° C.) was 7500 ppm.
For `CCCCCCOCC(O)CO` (centres unmarked) [hexylglycerol], the “Synergy index Qa/QA + Qb/QB” value (guanidine and hexylglycerol) was 1.00 and the “QB: Concentration of hexylglycerol as the sole agent that shows an endpoint” value (hexylglycerol alone, 48 hours at 30° C.) was 2000 ppm.
In the case of `CC(C)O` [isopropanol], the “Synergy index Qa/QA + Qb/QB” value (guanidine and isopropanol) is reported as 1.00 and the “QB: Concentration of isopropanol as the sole agent that shows an endpoint” value (isopropanol alone, 48 hours at 30° C.) is reported as 60000 ppm.
In the case of `CC(O)C(=O)O` (centres unmarked) [lactic acid], the “Synergy index Qa/QA + Qb/QB” value (guanidine and lactic acid, pH 5.5) is reported as 1.00 and the “QB: Concentration of lactic acid as the sole agent that shows an endpoint” value (lactic acid (added as sodium L-lactate) alone, MHB adjusted to pH 5.5, 48 hours at 30° C.) is reported as 15896 ppm.
`Oc1ccccc1-c1ccccc1` [oPP, o-phenylphenol] was tested, and the “Synergy index Qa/QA + Qb/QB” value (guanidine and oPP) was 1.00 and the “QB: Concentration of oPP as the sole agent that shows an endpoint” value (oPP alone, 48 hours at 30° C.) was 750 ppm.
In the case of `CCCCCCC(O)CO` (centres unmarked) [octane-1,2-diol], the “Synergy index Qa/QA + Qb/QB” value (guanidine and octane-1,2-diol) is reported as 1.00 and the “QB: Concentration of octane-1,2-diol as the sole agent that shows an endpoint” value (octane-1,2-diol alone, 48 hours at 30° C.) is reported as 2000 ppm.
In the case of `CCCC(O)CO` (centres unmarked) [pentane-1,2-diol], the “Synergy index Qa/QA + Qb/QB” value (guanidine and pentane-1,2-diol) is reported as 1.00 and the “QB: Concentration of pentane-1,2-diol as the sole agent that shows an endpoint” value (pentane-1,2-diol alone, 48 hours at 30° C.) is reported as 10000 ppm.
For `OCCc1ccccc1` [phenethyl alcohol], the “Synergy index Qa/QA + Qb/QB” value (guanidine and phenethyl alcohol) was 1.00 and the “QB: Concentration of phenethyl alcohol as the sole agent that shows an endpoint” value (phenethyl alcohol alone, 48 hours at 30° C.) was 2500 ppm.
For `[O-][n+]1ccccc1S` [pyrithione], the “Synergy index Qa/QA + Qb/QB” value (guanidine and pyrithione) was 1.00 and the “QB: Concentration of pyrithione as the sole agent that shows an endpoint” value (pyrithione (added as sodium pyrithione) alone, 48 hours at 30° C.) was 127 ppm.
For `O=C(O)c1ccccc1O` [salicylic acid], the “Synergy index Qa/QA + Qb/QB” value (guanidine and salicylic acid, pH 5.5) was 1.00 and the “QB: Concentration of salicylic acid as the sole agent that shows an endpoint” value (salicylic acid (added as sodium salicyate) alone, MHB adjusted to pH 5.5, 48 hours at 30° C.) was 1713 ppm.
For `C/C=C/C=C/C(=O)O` [sorbic acid], the “Synergy index Qa/QA + Qb/QB” value (guanidine and sorbic acid, pH 5.5) was 1.00 and the “QB: Concentration of sorbic acid as the sole agent that shows an endpoint” value (sorbic acid (added as potassium sorbate) alone, MHB adjusted to pH 5.5, 48 hours at 30° C.) was 1849 ppm.
